The results in this text go back to patent EP1210336B1, “SUBSTITUTED BENZIMIDAZOLES AS NON-NUCLEOSIDE INHIBITORS OF REVERSE TRANSCRIPTASE” (THE UNITED STATES OF AMERICA, as represented by the …, priority 1999, dated 2001).

One may read the EC50 as the midpoint of the concentration-response curve. What is called IC50 is the concentration needed to halve the response being measured.

In one data set the test system is WT virus (NL4-3). Put plainly: microbe, parasite or virus in culture. It is filed as cell-based, HIV-1. The settings on record: for EC50: read-out: EC50; for cytotoxicity and anti-viral effect (summary graph): Figures 10-12, result in words. On the procedure:
Evaluation of these compounds for the inhibition of HIV-1 was determined as the fifty percent cell culture inhibitory concentration (CIC50) in CEMSS cell culture with WT virus (NL4-3).
(§1) In this Example, the antiviral and cellular toxicity of NNRTIs was investigated, using the cytopathic cell killing assay described by Yang (Yang et al., "Characteristics of a Group of Non-nucleoside Reverse Transcriptase Inhibitors with Structural Diversity and Potent Anti-Human Immunodeficiency Virus Activity," Leukemia 9:S75-S85 [1995]). Briefly, in this method cells (e.g., the CEM-SS cell line, available from the NIAID AIDS Research and Reference Program [ARRRP]) were seeded at a density of 5 x 10^3 cells/well, into the wells of a 96-well microtiter plate. The cells were then infected with HIV virus (either mutant or WT), at a multiplicity of infection (MOI) previously determined to provide complete cell killing by 6 days of culture post-infection (e.g., MOI of 0.01-0.05). Each of the HIV isolates was pre-titered to induce equivalent levels of infection based on cell killing or virus production, prior to their use in these assays. A range of test compound concentrations was added to the wells in triplicate (e.g., serial half-log dilutions) to evaluate inhibition of HIV infection. Controls for each assay included drug controls (drug colorimetric control wells), drug cytotoxicity control wells (cells with drug), virus control wells (cells with virus), and cell viability controls (cells only). Positive control drugs (e.g., AZT and ddC) were also run in parallel.
(§2) After six days of incubation at 37°C, cell viability was determined spectrophotometrically at 450 nm for each well, using the metabolic reduction of XTT to a soluble colored formazan. (See, Gartner and Popovic, "Virus Isolation and Production, in Aldovini and Walker (eds.), Techniques in HIV Research, Stockton Press, NY, pp. […] [1991]; and Nara and Fischinger, "Quantitative Infectivity Assay for HIV-1 and HIV-2," Nature 332:469-470 [1988]).
(§3) The in vitro therapeutic index (TI50) was defined as the fold-difference between the EC50 and IC50. The results for the various compounds are included in Figures 8 and 19.

In the next data set the test system is HIV-1 variant Y181C. Put plainly: Cytopathic cell killing assay, cross-resistance profile, infected MT-4 cells. It is filed as cell-based. The settings on record: isolate Y181C.
Description: (§4) The various HIV isolates tested in the Figures are those corresponding to wild-type virus (NL4-3) and the other strains listed by their RT mutations. The three 4xAZT isolates included in the Figures represent AZT drug-resistant variants. For example, the 4xAZT/L100I isolate has five mutations: four mutations confer increased resistance to AZT, and the other mutation is located within the NNRTI binding pocket. TZB and nevir. (nevirapine) are two well-known NNRTIs, included in this experiment for comparison purposes. […]
as §1, §2, §3

The next data set relates to HIV-1 variant V108I. Described as above. It is filed as cell-based. The settings on record: Human immunodeficiency virus 1, MT4, Table 9; isolate V1081.
Description: as §4, §1, §2, §3

A further data set concerns HIV-1 variant L100I. The description is as above. The class given is cell-based. The settings on record: isolate L1001.
Description: as §4, §1, §2, §3

In another data set the test system is HIV-1 variant K103N. The description is as above. It is filed as cell-based. The settings on record: isolate K103N.
Description: as §4, §1, §2, §3

The test system of the next data set is HIV-1 variant K101E. Described as above. The settings on record: Human immunodeficiency virus 1, MT4, Table 9; isolate KIOIE. The class given is cell-based.
Description: as §4, §1, §2, §3

The next data set concerns NL4-3 (WT). The data set is described as above. It is filed as cell-based, HIV-1.
Description: as §4, §1, §2, §3

The next data set deals with T1, HIV-1 WT RT (Human immunodeficiency virus type 1 group M subtype B, UniProt P03366).
T1 construct: purified RT protein (0.015 mg/mL) was incubated in a 100 µL reaction mixture
Description: biochemical. The settings on record: for inhibition at 10 µM: 10 µM drug concentration; for IC50: read-out: IC50.

[1] abbreviates: Table 11, CEMSS/NL4-3, NRVC = reduction in viral CPE not seen (footnote).
Where [2] appears, read: Human immunodeficiency virus 1, MT4, Table 9.
[3] abbreviates: Table 2, WT RT, read-out: %inhibn (10µM).
Setting [4] is: Table 3, WT RT, read-out: %inhibn (10 µM).
The mark [5] stands for this setting: Table 1, WT RT, read-out: %inhibn (10µM).
Where [6] appears, read: Table 10 (values in µM), read-out: EC50.

Like-named read-outs stand apart in the source and are kept apart here. Bounds are passed on as bounds.

“1-(2,6-Difluorobenzyl)-2-(2,6-difluorophenyl)-4-hydroxyl-benzimidazole [compound 52]”: the EC50 in the data set on WT virus (NL4-3) (setting [1]) came out at 630 nM.

For “1-(2,6-Difluorobenzyl)-2-(2,6-difluorophenyl)-4-hydroxymethylbenzimidazole [compound 67]”, in the data set with WT virus (NL4-3) (setting [1]), the EC50 is 23 nM.

“1-(2,6-Difluorobenzyl)-2-(2,6-difluorophenyl)-4-isopropenylbenzimidazole [compound 66]”: the EC50 in the data set on WT virus (NL4-3) (setting [1]) stood at 1440 nM.

For the compound “1-(2,6-Difluorobenzyl)-2-(2,6-difluorophenyl)-benzimidazole-4-carbaldehyde [compound 68]”, the 50% effective concentration (EC50) in the data set on WT virus (NL4-3) (setting [1]) was 120 nM.

As to “1-(2,6-Difluorobenzyl)-2-(2,6-difluorophenyl)benzimidazole-4-carboxylate [compound 64]”, the “EC50 (µM)” value in the data set on WT virus (NL4-3) (setting [1]) is given as “NRVC”.

Turning to “1-(2,6-difluorobenzyl)-2-(2,6-difluorophenyl)-4-acetoxymethylbenzimidazole [compound 51]”, in the data set with WT virus (NL4-3) (setting [1]), the EC50 is 59 nM.

On to “1-(2,6-difluorobenzyl)-2-(2,6-difluorophenyl)-4-chloromethylbenzimidazole [compound 69]”, for which the EC50 in the data set with WT virus (NL4-3) (setting [1]) was determined as 180 nM.

For “1-(2,6-difluorobenzyl)-2-(2,6-difluorophenyl)-4-cyanobenzimidazole [compound 60]”, the EC50 in the data set with WT virus (NL4-3) (setting [1]) amounted to 430 nM.

On to “1-(2,6-difluorobenzyl)-2-(2,6-difluorophenyl)benzimidazol-4-yl-methylamine [compound 71]”, for which the EC50 in the data set with WT virus (NL4-3) (setting [1]) came to 37 nM.

For “1-(2,6-difluorobenzyl)-2-(2,6-difluorophenyl)benzimidazole-4-carboxylic acid amide [compound 62]”, the EC50 in the data set with WT virus (NL4-3) (setting [1]) came to 4900 nM.

With `CC(C)=CCn1c(-c2c(F)cccc2F)nc2c(C)cccc21` [(X= CH3) R = prenyl, 1-(3,3-dimethylallyl)-2-(2,6-difluorophenyl)-4-methylbenzimidazole], the EC50 with HIV-1 variant Y181C (setting [2]) was more than 20 µM; with HIV-1 variant V108I it was more than 20 µM; in the data set with HIV-1 variant L100I (setting [2]), 0.3 µM; in the data set with HIV-1 variant K103N (setting [2]), more than 20 µM; with HIV-1 variant K101E it was more than 20 µM; with NL4-3 (WT) (Human immunodeficiency virus 1, NL43, MT4, Table 9, isolate NL4.3) it was 1.3 µM.

On to `Fc1cccc(F)c1-c1nc2ccccc2n1Cc1ccccc1` [compound 28, 1-benzyl-2-(2,6-difluorophenyl)benzimidazole], for which the inhibition at 10 µM on HIV-1 WT RT (setting [3]) is 71%.

As for `Cc1cccc2c1nc(-c1c(F)cccc1F)n2Cc1ccccc1` [compound 29, 1-benzyl-2-(2,6-difluorophenyl)-4-methylbenzimidazole], the inhibition at 10 µM on HIV-1 WT RT (setting [3]) came to 87%.

Consider `Cc1cccc2c1nc(-c1c(F)cccc1F)n2Cc1c(Cl)cccc1Cl` [compound 30, 1-(2,6-dichlorobenzyl)-2-(2,6-difluorophenyl)-4-methylbenzimidazole], for which the inhibition at 10 µM at HIV-1 WT RT (setting [3]) is 58%.

On to `Fc1cccc(F)c1COCc1nc2ccccc2n1Cc1c(F)cccc1F` [compound 32, 1-(2,6-difluorobenzyl)-2-(2,6-difluorobenzyloxymethyl)benzimidazole], for which the inhibition at 10 µM on HIV-1 WT RT (setting [4]) is 7%.

Consider `Cc1cccc2c1nc(C(C)C)n2Cc1c(F)cccc1F` [compound 34, 1-(2,6-difluorobenzyl)-2-isopropyl-4-methylbenzimidazole], for which the “cytotoxicity and anti-viral effect (summary graph)” value in the data set with WT virus (NL4-3) is given as “effective therapeutic dose”. Moreover, the inhibition at 10 µM on HIV-1 WT RT (setting [4]) was 53%.

With `Cc1nc2ccccc2n1Cc1c(F)cccc1F` [compound 35, 1-(2,6-difluorobenzyl)-2-methylbenzimidazole], the inhibition at 10 µM at HIV-1 WT RT (setting [4]) stood at 22%.

As for `Cc1ccccc1-c1nc2ccccc2n1Cc1c(F)cccc1F` [compound 36, 1-(2,6-difluorobenzyl)-2-(2-methylphenyl)benzimidazole], the inhibition at 10 µM at HIV-1 WT RT (setting [5]) was 71%.

For `Cc1cccc2c1nc(-c1cccc3ccccc13)n2Cc1c(F)cccc1F` [compound 37, 1-(2,6-difluorobenzyl)-2-(1-naphthyl)-4-methylbenzimidazole], on HIV-1 WT RT (setting [5]), the inhibition at 10 µM was 2%.

Turning to `Fc1cccc(F)c1Cn1c(-c2c(F)cccc2F)nc2cc(Br)ccc21` [compound 38, 1-(2,6-Difluorobenzyl)-2-(2,6-difluorophenyl)-5-bromobenzimidazole], in the data set on WT virus (NL4-3), the “cytotoxicity and anti-viral effect (summary graph)” value is “inactive”.

For the compound `O=S(=O)(c1ccccc1)n1c(-c2c(F)cccc2F)nc2ccccc21` [compound 45], at HIV-1 WT RT (setting [3]), the inhibition at 10 µM came to 52%.

As to `Cc1cccc2c1nc(-c1c(F)cccc1F)n2S(=O)(=O)c1ccccc1` [compound 46], at HIV-1 WT RT (setting [3]), the inhibition at 10 µM is 39%.

In the case of `CN(C)c1cccc2c1nc(-c1c(F)cccc1F)n2Cc1c(F)cccc1F` [compound 59, 1-(2,6-difluorobenzyl)-2-(2,6-difluorophenyl)-4-N,N dimethylaminobenzimidazole], the EC50 in the data set on HIV-1 variant Y181C (setting [6]) is more than 100 µM; in the data set on HIV-1 variant L100I (setting [6]), 31.8 µM; in the data set with HIV-1 variant K103N (setting [6]), more than 100 µM; in the data set on WT virus (NL4-3) (Table 7, concentration reducing cell killing or virus production by 50%, HIV-1 WT) it was 2370 nM; with WT virus (NL4-3) (setting [1]) it was 2370 nM; in the data set with NL4-3 (WT) (Table 10 (values in µM), isolate NL4-3 (WT), read-out: EC50), 2.88 µM. The IC50 on HIV-1 WT RT (Table 7, HIV-1 WT RT) was found to be 40 µM; on HIV-1 WT RT (Table 11, WT RT) it was 40 µM. The “%inhibn (1µM)” value at HIV-1 WT RT (Table 7, WT HIV-1 RT, 1 µM drug) came to 77%.

As for `N=C(NO)c1cccc2c1nc(-c1c(F)cccc1F)n2Cc1c(F)cccc1F` [compound 61, N-hydroxy 1-(2,6-difluorobenzyl)-2-(2,6-difluorophenyl)benzimidazole-4-carboxamidine], the EC50 with WT virus (NL4-3) (Human immunodeficiency virus 1, NL43, CEM-SS, Table 11, CEMSS/NL4-3, NRVC = reduction in viral CPE not seen (footnote)) was determined as 190 nM.

`CN(C)C(=O)c1cccc2c1nc(-c1c(F)cccc1F)n2Cc1c(F)cccc1F` [compound 63, 1-(2,6-difluorobenzyl)-2-(2,6-difluorophenyl)benzimidazole-4-carboxylic acid dimethylamide]: in the data set on WT virus (NL4-3) (setting [1]), the “EC50 (µM)” value was “NRVC”.

For `CC(C)(O)c1cccc2c1nc(-c1c(F)cccc1F)n2Cc1c(F)cccc1F` [compound 65, 1-(2,6-Difluorobenzyl)-2-(2,6-difluorophenyl)-4-benzimidazoyl-2-propanol], the EC50 with WT virus (NL4-3) (setting [1]) amounted to 634000 nM.

As to `CC(=O)NCc1cccc2c1nc(-c1c(F)cccc1F)n2Cc1c(F)cccc1F` [compound 72], in the data set on WT virus (NL4-3) (setting [1]), the “EC50 (µM)” value is “NRVC”.

Take `CC(=O)N(C)Cc1cccc2c1nc(-c1c(F)cccc1F)n2Cc1c(F)cccc1F` [compound 73, 1-(2,6-Difluorobenzyl)-2-(2,6-difluorophenyl)-4-(N-acetyl-N-methyl)-aminomethylbenzimidazole]: the EC50 in the data set with WT virus (NL4-3) (setting [1]) was 580 nM.

On to `Cc1cccc2c1nc(-c1ccc(C#N)cc1)n2Cc1c(F)cccc1F` [compound 4007], for which the inhibition at 10 µM at HIV-1 WT RT (setting [5]) is 26%.
